Measured values taken from PMC6151660 (Molecules : A Journal of Synthetic Chemistry and Natural …, 2017).
≈ marks a conversion by molar mass, not a printed value.

Columns and labels:
M. tuberculosis = settings: cited from earlier work
in vitro = settings: for CC50 at 44 h: CHO cells
Experimental: Cytotoxicity was evaluated on CHO cells utilizing a standard 3-[4,5-dimethylthiazol-2-yl]-2,5-diphenyl tetrazolium bromide (MTT) assay. The MTT is a yellow tetrazolium salt that is reduced to purple formazan in the presence of living cells. This reduction reaction was used to measure growth and chemosensitivity. The test samples were tested in triplicate on one occasion. Cells were seeded in microtiter plates at a density of 10^5 cells/mL and incubated for 24 h prior to exposure. The test samples were prepared to a 20 mg/mL stock solution in 10% methanol or 10% DMSO and were tested as a suspension if not properly dissolved. Test compounds were stored at −20 °C until use, and administered in volumes of 100 µL to the plated cells. Emetine was used as the reference drug in all experiments. […] Plates were developed after 44 h of exposure to the drug by the addition of a solution of MTT. After four hours, further incubation at 37 °C the supernatant was removed from the cells via suction and DMSO was added to each well to dissolve the reduced dye crystals. […] The amount of formazan produced in wells containing untreated cells only and growth medium only represent 100% survival and 0% survival respectively, and the amount in each treatment well was converted to a survival percentage relative to these two extremes. The IC50 values were obtained from full dose-response curves, using a non-linear dose-response curve fitting analysis via GraphPad Prism v.4 software.

[1] = system: Mycobacterium tuberculosis H37Rv; test: microbe, parasite or virus in culture; type: cell-based; settings: 120 h, day 5, read-out: % M. tuberculosis Growth, Day 5; for activity at 1 µM: 1 µM compound; for activity at 50 µM: 50 µM compound; for activity at 100 µM: 100 µM compound
[2] = system: M. tuberculosis H37RvMA pMSP12:GFP; test: microbe, parasite or virus in culture; type: cell-based; settings: Mycobacterium tuberculosis
[3] = system: M. tuberculosis H37Rv:pCHERRY3; test: microbe, parasite or virus in culture; type: cell-based; settings: Mycobacterium tuberculosis
electric eel AChE = system: electric eel AChE; parameters: method as in Joubert et al., 2017 [23]; settings: ref Joubert et al., 2017 [23]; cited from earlier work
[4] = molecular target: equine butyrylcholinesterase (BuChE); parameters: method as in Joubert et al., 2017 [23]; settings: ref Joubert et al., 2017 [23]; cited from earlier work
[5] = SH-SY5Y cytotoxicity MTT assay; type: cell-based, human; settings: human, SH-SY5Y neuroblastoma cells, MTT, read-out: CC 50% SH-SY5Y (range where 50% cell toxicity will be observed)
Experimental: (§1) The human neuroblastoma cell line SH-SY5Y was generously donated by our collaborator at the Division of Molecular Biology and Human Biology, Stellenbosch University, Tygerberg, Cape Town. Cells were cultured in monolayer using Dulbecco Modified Eagles Medium (DMEM, Gibco, Life Technologies Ltd. Carlsbad, CA, USA) supplemented with 10% fetal bovine serum (FBS, Gibco, Life Technologies Ltd.) and 1% 100 U/mL penicillin and 100 μg/mL streptomycin (Lonza Group Ltd., Basel, Switzerland). Cells were grown at 37 °C, in a humidified atmosphere at 5% CO2. Media were replaced every two to three days and cells were sub-cultured by splitting with trypsin (Lonza Group Ltd.).
(§2) The standard MTT assay which measures cell metabolic activity was used to determine cytotoxicity of CM14, CM15 and CM9 as described by Mosmann. Briefly, SH-SY5Y cells were plated in flat bottom 96 well plates in growth medium as stated in Section 3.7.1 at a density of 7500 cells/well. Cells were allowed to adhere to the plate surface for 24 h and used media were replaced with fresh media containing test compounds at 10 µM, 50 µM and 100 µM. Vehicle control cells were treated with DMSO (solvent for dissolving test compounds) at a concentration similar to the amount contained in the highest concentration of test compounds. After 48 h, 10 µL of MTT solution (5 mg/mL) was added to each well and incubated for 4 h and the purple formazan formed was solubilized with 100 µL DMSO and plates were read spectrophotometrically to determine absorbance at 570 nm using a BMG Labtech POLARStar Omega multimodal plate reader.

SH-SY5Y cells [6] = test: SH-SY5Y cytotoxicity MTT assay; type: cell-based, human; settings: 48 h
Experimental: as §1, §2

SH-SY5Y cells [7] = test: MPP+-induced cytotoxicity in SH-SY5Y cells (neuroprotection); settings: 1000 μM MPP+ for 48 h

Structure (SMILES)	activity at 1 µM [1]	activity at 50 µM [1]	activity at 100 µM [1]	other results
COc1ccc2cc(-n3cc(COc4nc(-c5ccccn5)sc4C(N)=O)nn3)c(=O)oc2c1 [Compound 3]	–	–	–	MIC (M. tuberculosis): 6.5 µM (≈ 3.1 µg/mL)
CC[C@H]1CN2CCc3cc(OC)c(OC)cc3[C@@H]2C[C@@H]1C[C@H]1NCCc2cc(OC)c(OC)cc21 [Emetine, reference compound]	–	–	–	CC50 (in vitro; Chinese hamster): 0.06 µM
Cc1cc(=O)oc2cc(OCCN3CCN(Cc4ccc(Br)cc4)CC3)ccc12 [CM12]	95.2%	4.35%	3.93%	MIC90 [2]: 14 µM (≈ 6.4 µg/mL); MIC99 [2]: 29.7 µM (≈ 13.6 µg/mL); MIC90 [3]: 40.9 µM (≈ 18.7 µg/mL); MIC99 [3]: 50.4 µM (≈ 23.1 µg/mL); CC50 at 44 h (in vitro): 15.5 µM; IC50 (electric eel AChE): 12.8 µM; IC50 [4]: 9.7 µM
Cc1c(C#N)c(=O)oc2cc(OCCN3CCC(Cc4ccccc4)CC3)ccc12 [CM9]	92.8%	7.75%	6.19%	CC50 at 48 h [5]: 10 to 50 µM; effect on viability of SH-SY5Y cells (SH-SY5Y cells [6]; 10 µM): did not significantly affect; effect on viability of SH-SY5Y cells (SH-SY5Y cells [6]; 50 µM and 100 µM): significantly (p < 0.001) affected; IC50 (electric eel AChE): 9.1 µM; IC50 [4]: 5.9 µM; cell survival restored after MPP+ exposure (SH-SY5Y cells [7]; 1 µM compound, untreated control 100%): 81.86 ± 3.72%; maximal cytoprotection (cell viability) after MPP+ exposure (SH-SY5Y cells [7]; 10 µM compound): 92.2 ± 4.18%
O=c1ccc2ccc(OCCN3CCC(Cc4ccccc4)CC3)cc2o1 [CM6]	98.2%	52.7%	15.4%	–
Cc1cc(=O)oc2cc(OCCN3CCC(Cc4ccccc4)CC3)ccc12 [CM7]	95.1%	29.5%	8.18%	–
C[n+]1ccc(-c2ccccc2)cc1 [MPP^+, 1-methyl-4-phenyl pyridinium, reference compound]	–	–	–	cell viability after MPP+ without test compound (SH-SY5Y cells [7]): 51.42 ± 3.18%
Cc1c(Cl)c(=O)oc2cc(OCCN3CCN(Cc4ccc(Br)cc4)CC3)ccc12 [CM13]	97%	42.5%	32.1%	–
Cc1c(Cl)c(=O)oc2cc(OCCN3CCC(Cc4ccccc4)CC3)ccc12 [CM8]	93.6%	5.69%	4.62%	MIC90 [2]: 19.6 µM (≈ 8.07 µg/mL); MIC99 [2]: 25.2 µM (≈ 10.4 µg/mL); MIC90 [3]: 40.5 µM (≈ 16.7 µg/mL); MIC99 [3]: 44.1 µM (≈ 18.2 µg/mL); CC50 at 44 h (in vitro): 33 µM; IC50 (electric eel AChE): 31.3 µM; IC50 [4]: 1.27 µM
Cc1cc(=O)oc2cc(OCc3ccc(Br)cc3)ccc12 [CM2]	90%	40.9%	33.2%	–
O=c1cc(C(F)(F)F)c2ccc(OCc3ccc(Br)cc3)cc2o1 [CM5]	107%	65%	56.1%	–
